Data from patent US9938562B2, “Naphthalene derived chromogenic enzyme substrates” (Glycosynth Limited, priority 2013, dated 2018).
Counter-ions that a name gives are not always drawn.

What was measured:
Type in all cases: cell-based
[1] = test system: Listeria monocytogenes NCTC 11994; assay: Agar plate multi-point inoculation, colour
[2] = test system: Morganella morganii 462403 (wild); assay: Agar plate multi-point inoculation, colour; conditions: Columbia agar, FAC 500 mg/L, substrate 300 mg/L, 37° C. 18 h in air
[3] = test system: Staphylococcus epidermidis NCTC 11047; assay: Agar plate multi-point inoculation, colour
[4] = test system: Candida glabrata NCPF 3943; assay: Agar plate multi-point inoculation, colour
[5] = test system: Enterococcus faecium NCTC 7171; assay: Agar plate multi-point inoculation, colour
E. cloacae = assay: Glucuronide screen, broth containing FAC
[6] = test system: Burkholderia cepacia 1222; assay: Agar plate multi-point inoculation, colour; conditions: Columbia agar, FAC 500 mg/L, substrate 300 mg/L, 37° C. 18 h in air
[7] = test system: Yersinia enterocolitica NCTC 11176; assay: Agar plate multi-point inoculation, colour; conditions: Columbia agar, FAC 500 mg/L, substrate 300 mg/L, 37° C. 18 h in air
[8] = test system: Enterococcus faecalis NCTC 775; assay: Agar plate multi-point inoculation, colour
[9] = test system: Steptococcus pyogenes NCTC 8306; assay: Agar plate multi-point inoculation, colour
[10] = test system: Staphylococcus aureus (MRSA) NCTC 11939; assay: Agar plate multi-point inoculation, colour; conditions: Columbia agar, FAC 500 mg/L, substrate 300 mg/L, 37° C. 18 h in air
[11] = test system: clinical isolates of E. coli
[12] = test system: Serratia marcescens NCTC 10211; assay: Agar plate multi-point inoculation, colour
[13] = test system: Candida albicans ATCC 90028; conditions: Columbia agar, FAC 500 mg/L, substrate 300 mg/L, 37° C. 18 h in air
[14] = test system: Salmonella typhimurium NCTC 74; assay: Agar plate multi-point inoculation, colour
[15] = test system: Escherichia coli NCTC 10418; assay: Agar plate multi-point inoculation, colour
[16] = test system: Bacillus subtilis NCTC 9372; assay: Agar plate multi-point inoculation, colour
Shigella sonnei = assay: Broth medium with ONPG (dual chromogenic system); conditions: combination with ONPG
Experimental: (§1) The two indoxyl glucuronides used produce insoluble endpoints following hydrolysis, as does the CPS ID 3 medium. It was therefore necessary to test these two substrates on agar plates. In contrast, DHN-β-D-glucuronide (12) gives a much more soluble endpoint best suited to liquid media and was therefore tested in a broth medium. The broth was prepared using proteose peptone (2 g), NaCl (1 g) and FAC (100 mg) in DI water (180 mL). This mixture was autoclaved and cooled to room temperature before being dispensed into bijoux (100×1.8 mL). DHN-β-D-glucuronide CHA salt (12a) (60 mg) was dissolved in water (20 mL) and filtered to sterilize before being aseptically dispensed into successive bijoux (0.2 mL) containing the broth solution. The broth/substrate solutions were then inoculated with bacterial suspensions made up to 0.5 McFarland standard (2 μL per bijoux). X-β-D-glucuronide CHA salt (Glycosynth Ltd, Warrington, UK) (10 mg) was dissolved in NMP (200 μL). […]
(§2) Because many E. coli produce both β-D-glucuronidase and β-D-galactosidase, DHN-β-D-glucuronide (12a) was tested as in the broth medium described above but in the presence of ONPG (at a concentration of 1.5 g/L). […] The colour of these solutions of mixed chromogens could be very readily distinguished with the unaided eye from the yellow colour of those strains, such as E. cloacae, that produced β-D-galactosidase only. […]

[17] = test system: E. coli expressing both β-D-glucuronidase and β-D-galactosidase; assay: Broth medium with ONPG (dual chromogenic system); conditions: broth with FAC, ONPG 1.5 g/L
Experimental: as §1, §2

[18] = test system: Enterobacter cloacae NCTC 11936; assay: Agar plate multi-point inoculation, colour
[19] = test system: Pseudomonas aeruginosa NCTC 10662; assay: Agar plate multi-point inoculation, colour
E. faecium NCTC 7171 = assay: Glucuronide screen, broth containing FAC; conditions: E. faecium NCTC 7171, broth
[20] = test system: Citrobacter freundii NCTC 9750 or 46262; assay: Agar plate multi-point inoculation, colour; conditions: Columbia agar, FAC 500 mg/L, substrate 300 mg/L, 37° C. 18 h in air
[21] = test system: Staphylococcus aureus NCTC 6571; assay: Agar plate multi-point inoculation, colour
[22] = test system: Providencia rettgeri NCTC 7475; assay: Agar plate multi-point inoculation, colour
E. faecalis NCTC 775 = assay: Glucuronide screen, broth containing FAC; conditions: E. faecalis NCTC 775, broth

O=C(O)C1OC(Oc2cc3ccccc3cc2O)C(O)C(O)C1O [Compound 12a, DHN-β-D-glucuronide CHA Salt]
Colour [1]: −
Colour [2]: −
Colour [3]: −
Colour [4]: −
Colour [5]: −
Colour (E. cloacae; E. cloacae 260329R, broth): −
Colour (E. cloacae; E. cloacae NCTC 11936, broth): −
Colour [6]: −
Colour [7]: −
Colour [8]: −
Colour [9]: −
Colour [10]: −
% Sensitivity [11]: 82%
Colour [11]: Purple and −
Negative strains [11]: 18
Positive strains [11]: 82
Colour [12]: −
Colour [13]: −
Colour [14]: −
Colour [15]: ++
hydrolysis of substrate (judged by colour) [15]: strong colour
Colour [16]: −
detection of β-D-glucuronidase activity (Shigella sonnei): able to detect
colour of solutions [17]: purple-brown solutions
Colour [18]: −
Colour [19]: −
Colour (E. faecium NCTC 7171): −
Colour [20]: −
Colour [21]: −
Colour [22]: −
Colour (E. faecalis NCTC 775): −
